Consider 7 compounds from patent US11572399B2, “Long-acting GIP peptide analogues” (University of Copenhagen, priority 2017, dated 2023).

Peptide text beside a SMILES is read from it. * marks the point of attachment. C16 diacid = O=C(O)CCCCCCCCCCCCCCC(=O)*; Palmitoyl = CCCCCCCCCCCCCCCC(=O)*; Lauroyl = CCCCCCCCCCCC(=O)*

The target in the first experiment is T1, human GIP receptor (Homo sapiens, UniProt P48546).
T1 construct: host or cells: COS-7, transient transfection (calcium phosphate), cDNA in pCMV-Script
T1 sequence (P48546 22-466): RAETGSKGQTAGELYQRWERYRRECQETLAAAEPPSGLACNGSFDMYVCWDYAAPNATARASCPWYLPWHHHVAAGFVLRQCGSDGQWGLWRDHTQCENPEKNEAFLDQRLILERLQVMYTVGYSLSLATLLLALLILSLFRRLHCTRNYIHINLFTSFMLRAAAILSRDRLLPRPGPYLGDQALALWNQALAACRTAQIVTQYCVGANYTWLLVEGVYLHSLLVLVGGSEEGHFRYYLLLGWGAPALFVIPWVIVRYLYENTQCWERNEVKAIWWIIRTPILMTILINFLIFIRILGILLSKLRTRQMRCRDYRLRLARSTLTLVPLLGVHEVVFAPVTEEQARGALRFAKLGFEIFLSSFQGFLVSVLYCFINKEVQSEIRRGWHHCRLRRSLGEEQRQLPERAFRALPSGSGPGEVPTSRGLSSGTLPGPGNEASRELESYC
Description: cAMP accumulation assay, agonism (ligand alone). To be noted: COS-7, intrinsic cAMP activity; COS-7 cells; Table 1. The class given is cell-based. As for the experimental part:
COS-7 cells were cultured at 10% CO2 and 37° C. in Dulbecco's modified Eagle's medium 1885 supplemented with 10% fetal bovine serum, 2 mM glutamine, 180 units/ml penicillin, and 45 µg/ml streptomycin. Transient transfection of the COS-7 cells for cAMP accumulation and competition binding was performed using the calcium phosphate precipitation method with the addition of chloroquine^46-47.
Transient transfected COS-7 cells expressing the human GIP receptor were seeded in white 96-well plates with a density of 3.5*10^4/well. The day after, the cells were washed twice with Hepes buffered saline (HBS) buffer and incubated with HBS and 1 mM 3-isobutyl-1-methylxanthine (IBMX) for 30 min at 37° C. To test for agonistic properties, ligands were added and incubated for 30 min at 37° C. In order to test for antagonistic properties, the cells were preincubated with the antagonists for 10 min prior to the addition of the agonist and subsequent incubated for 20 additional min. The HitHunter™ cAMP XS assay (DiscoveRx) was carried out according to the manufacturer's instructions.
IC50, EC50, and Ki values were determined by nonlinear regression. These were carried out with the GraphPad Prism 6.0 software (GraphPad, San Diego, Calif., USA) and Microsoft Excel™. Ki values were based on the formula for one class of binding sites in homologous competition binding studies and the Cheng Prussoffs formula, respectively (DeBlasi et al., 1989). To determine the HSA binding potential, the fold change in affinity (as determined by IC50) was calculated as IC50 (plus HSA)/IC50 (minus HSA).
In the case of `CC[C@H](C)[C@H](NC(=O)[C@H](CO)NC(=O)[C@H](Cc1ccc(O)cc1)NC(=O)[C@H](CC(=O)O)NC(=O)[C@H](CO)NC(=O)[C@@H](NC(=O)[C@H](Cc1ccccc1)NC(=O)[C@@H](NC(=O)CNC(=O)[C@@H](N)CCC(=O)O)[C@@H](C)O)[C@@H](C)CC)C(=O)N[C@@H](C)C(=O)N[C@@H](CCSC)C(=O)N[C@@H](CC(=O)O)C(=O)N[C@@H](CCCCN)C(=O)N[C@H](C(=O)N[C@@H](Cc1c[nH]cn1)C(=O)N[C@@H](CCC(N)=O)C(=O)N[C@@H](CCC(N)=O)C(=O)N[C@@H](CC(=O)O)C(=O)N[C@@H](CCCCNC(=O)CCCCCCCCCCCCCCC(=O)O)C(=O)N[C@H](C(=O)N[C@@H](CC(N)=O)C(=O)N[C@@H](Cc1c[nH]c2ccccc12)C(=O)N[C@@H](CC(C)C)C(=O)N[C@@H](CC(C)C)C(=O)N[C@@H](C)C(=O)N[C@@H](CCC(N)=O)C(=O)N[C@@H](CCCCN)C(N)=O)C(C)C)[C@@H](C)CC` [AT311, [hGIP(3-30)NH2[F22K]-C16diacid/22]] (H-EGTFISDYSIAMDKIHQQDK(C16 diacid)VNWLLAQK-NH2; N-terminus assumed), the Emax is 17.5%.
Compound `CCCCCCCCCCCCCC(=O)NCCCC[C@H](NC(=O)[C@H](CCC(N)=O)NC(=O)[C@H](C)NC(=O)[C@H](CC(C)C)NC(=O)[C@H](CC(C)C)NC(=O)[C@H](Cc1c[nH]c2ccccc12)NC(=O)[C@H](CC(N)=O)NC(=O)[C@@H](NC(=O)[C@H](Cc1ccccc1)NC(=O)[C@H](CC(=O)O)NC(=O)[C@H](CCC(N)=O)NC(=O)[C@H](CCC(N)=O)NC(=O)[C@H](Cc1c[nH]cn1)NC(=O)[C@@H](NC(=O)[C@H](CCCCN)NC(=O)[C@H](CC(=O)O)NC(=O)[C@H](CCSC)NC(=O)[C@H](C)NC(=O)[C@@H](NC(=O)[C@H](CO)NC(=O)[C@H](Cc1ccc(O)cc1)NC(=O)[C@H](CC(=O)O)NC(=O)[C@H](CO)NC(=O)[C@@H](NC(=O)[C@H](Cc1ccccc1)NC(=O)[C@@H](N)[C@@H](C)O)[C@@H](C)CC)[C@@H](C)CC)[C@@H](C)CC)C(C)C)C(N)=O` [AT123, [hGIP(5-30)NH2—C14/30]] had an Emax of 64%.
Still for that read-out and setting: the same measure for `CCCCCCCCCCCC(=O)NCCCC[C@H](NC(=O)[C@H](CCC(N)=O)NC(=O)[C@H](C)NC(=O)[C@H](CC(C)C)NC(=O)[C@H](CC(C)C)NC(=O)[C@H](Cc1c[nH]c2ccccc12)NC(=O)[C@H](CC(N)=O)NC(=O)[C@@H](NC(=O)[C@H](Cc1ccccc1)NC(=O)[C@H](CC(=O)O)NC(=O)[C@H](CCC(N)=O)NC(=O)[C@H](CCC(N)=O)NC(=O)[C@H](C)NC(=O)[C@@H](NC(=O)[C@H](CCCCN)NC(=O)[C@H](CCC(=O)O)NC(=O)[C@H](CCSC)NC(=O)[C@H](C)NC(=O)[C@@H](NC(=O)[C@H](CO)NC(=O)[C@H](Cc1ccc(O)cc1)NC(=O)[C@H](CC(=O)O)NC(=O)[C@H](CO)NC(=O)[C@@H](NC(=O)[C@H](Cc1ccccc1)NC(=O)[C@@H](NC(=O)CNC(=O)[C@@H](N)CCC(=O)O)[C@@H](C)O)[C@@H](C)CC)[C@@H](C)CC)[C@@H](C)CC)C(C)C)C(N)=O` [AT130, [hGIP(3-30)NH2[D15E; H18A]-C12/30]] (H-EGTFISDYSIAMEKIAQQDFVNWLLAQK(Lauroyl)-NH2; N-terminus assumed): 49%; for `CC[C@H](C)[C@H](NC(=O)[C@H](CO)NC(=O)[C@H](Cc1ccc(O)cc1)NC(=O)[C@H](CC(=O)O)NC(=O)[C@H](CO)NC(=O)[C@@H](NC(=O)[C@H](Cc1ccccc1)NC(=O)[C@@H](NC(=O)CNC(=O)[C@@H](N)CCC(=O)O)[C@@H](C)O)[C@@H](C)CC)C(=O)N[C@@H](C)C(=O)N[C@@H](CCSC)C(=O)N[C@@H](CC(=O)O)C(=O)N[C@@H](CCCCN)C(=O)N[C@H](C(=O)N[C@@H](Cc1c[nH]cn1)C(=O)N[C@@H](CCC(N)=O)C(=O)N[C@@H](CCC(N)=O)C(=O)N[C@@H](CC(=O)O)C(=O)N[C@@H](Cc1ccccc1)C(=O)N[C@H](C(=O)N[C@@H](CCCCNC(=O)CCCCCCCCCCCCCCC(=O)O)C(=O)N[C@@H](Cc1c[nH]c2ccccc12)C(=O)N[C@@H](CC(C)C)C(=O)N[C@@H](CC(C)C)C(=O)N[C@@H](C)C(=O)N[C@@H](CCC(N)=O)C(=O)N[C@@H](CCCCN)C(N)=O)C(C)C)[C@@H](C)CC` [AT313, [hGIP(3-30)NH2[N24K]-C16diacid/24]] (H-EGTFISDYSIAMDKIHQQDFVK(C16 diacid)WLLAQK-NH2; N-terminus assumed): 7.2%.
The same measure, in the same setting: the same measure for `CCCCCCCCCCCCCCCC(=O)NCCCC[C@H](NC(=O)[C@@H](NC(=O)[C@H](CCCNC(=N)N)NC(=O)[C@H](CC(=O)O)NC(=O)[C@H](CCSC)NC(=O)[C@H](C)NC(=O)[C@@H](NC(=O)[C@H](CO)NC(=O)[C@H](Cc1ccc(O)cc1)NC(=O)[C@H](CC(=O)O)NC(=O)[C@H](CO)NC(=O)[C@@H](NC(=O)[C@H](Cc1ccccc1)NC(=O)[C@@H](NC(=O)CNC(=O)[C@@H](N)CCC(=O)O)[C@@H](C)O)[C@@H](C)CC)[C@@H](C)CC)[C@@H](C)CC)C(=O)N[C@@H](CCC(N)=O)C(=O)N[C@@H](CCC(N)=O)C(=O)N[C@@H](CC(=O)O)C(=O)N[C@@H](Cc1ccccc1)C(=O)N[C@H](C(=O)N[C@@H](CC(N)=O)C(=O)N[C@@H](Cc1c[nH]c2ccccc12)C(=O)N[C@@H](CC(C)C)C(=O)N[C@@H](CC(C)C)C(=O)N[C@@H](C)C(=O)N[C@@H](CCC(N)=O)C(=O)N[C@@H](CCCNC(=N)N)C(N)=O)C(C)C` [AT144, [hGIP(3-30)NH2[K16R; H18K; K30R]-C16/18]] (H-EGTFISDYSIAMDRIK(Palmitoyl)QQDFVNWLLAQR-NH2; N-terminus assumed): 0%; for `CC[C@H](C)[C@H](NC(=O)[C@H](CO)NC(=O)[C@H](Cc1ccc(O)cc1)NC(=O)[C@H](CC(=O)O)NC(=O)[C@H](CO)NC(=O)[C@@H](NC(=O)[C@H](Cc1ccccc1)NC(=O)[C@@H](NC(=O)CNC(=O)[C@@H](N)CCC(=O)O)[C@@H](C)O)[C@@H](C)CC)C(=O)N[C@@H](C)C(=O)N[C@@H](CCSC)C(=O)N[C@@H](CC(=O)O)C(=O)N[C@@H](CCCCN)C(=O)N[C@H](C(=O)N[C@@H](Cc1c[nH]cn1)C(=O)N[C@@H](CCC(N)=O)C(=O)N[C@@H](CCC(N)=O)C(=O)N[C@@H](CC(=O)O)C(=O)N[C@@H](Cc1ccccc1)C(=O)N[C@H](C(=O)N[C@@H](CC(N)=O)C(=O)N[C@@H](Cc1c[nH]c2ccccc12)C(=O)N[C@@H](CC(C)C)C(=O)N[C@@H](CCCCNC(=O)CCCCCCCCCCCCCCC(=O)O)C(=O)N[C@@H](C)C(=O)N[C@@H](CCC(N)=O)C(=O)N[C@@H](CCCCN)C(N)=O)C(C)C)[C@@H](C)CC` [AT316, [hGIP(3-30)NH2[L27K]-C16diacid/27]] (H-EGTFISDYSIAMDKIHQQDFVNWLK(C16 diacid)AQK-NH2; N-terminus assumed): 6.2%.

Staying with this experiment, now noted: COS-7 cells; Table 1; read-out: cAMP agonism nM (EC50).
For the compound `CCCCCCCCCCCCCCCCCC(=O)NCCCC[C@H](NC(=O)[C@H](CCC(N)=O)NC(=O)[C@H](C)NC(=O)[C@H](CC(C)C)NC(=O)[C@H](CC(C)C)NC(=O)[C@H](Cc1c[nH]c2ccccc12)NC(=O)[C@H](CC(N)=O)NC(=O)[C@@H](NC(=O)[C@H](Cc1ccccc1)NC(=O)[C@H](CC(=O)O)NC(=O)[C@H](CCC(N)=O)NC(=O)[C@H](CCC(N)=O)NC(=O)[C@H](Cc1c[nH]cn1)NC(=O)[C@@H](NC(=O)[C@H](CCCCN)NC(=O)[C@H](CC(=O)O)NC(=O)[C@H](CCSC)NC(=O)[C@H](C)NC(=O)[C@@H](NC(=O)[C@H](CO)NC(=O)[C@H](Cc1ccc(O)cc1)NC(=O)[C@H](CC(=O)O)NC(=O)[C@H](CO)NC(=O)[C@@H](NC(=O)[C@H](Cc1ccccc1)NC(=O)[C@@H](NC(=O)CNC(=O)[C@@H](N)CCC(=O)O)[C@@H](C)O)[C@@H](C)CC)[C@@H](C)CC)[C@@H](C)CC)C(C)C)C(N)=O` [AT115, [hGIP(3-30)NH2—C18/30]], the EC50 turned out to be 134 nM.
